Laboratory results from patent US11932652B2, “Pyrrolidinyl urea derivatives and application thereof in TrkA-related diseases” (ZHANGZHOU PIEN TZE HUANG PHARMACEUTICAL CO., LTD., priority 2018, dated 2024).

Assays:
[1] = test system: plasma protein; assay: Plasma protein binding rate (PPB) test, SD rat plasma; type: in vitro ADME; settings: 2 μM, dialysis 37° C. 4 hours
Procedure: The protein binding rates of the test compound in the plasma of humans, SD rats and Beagle dogs were determined.
796 μL of blank plasma from humans, SD rats and Beagle dogs (plasma purchased from BioreclamationIVT) were taken, 4 μL of working solution of the test compound (400 μM) or warfarin working solution (400 μM) was added and the final concentration of the test compound or warfarin was 2 μM. The sample was mixed thoroughly. The final concentration of organic phase DMSO was 0.5%; 50 μL of the plasma sample treated with the test compound or warfarin was pipetted into the sample receiving plate, and a corresponding volume of blank plasma or buffer was added immediately so that the final volume in each sample well was 100 μL, the volume ratio of plasma:dialysis buffer was 1:1; 400 μL of stop solution was added to these samples, and these samples were used as T0 samples for recovery and stability determination. To samples were stored at 2° C. to 8° C. for subsequent processing together with other dialyzed samples; 150 μL of the plasma sample treated with the test compound or warfarin was added into the dosing end of each dialysis hole, and 150 μL of blank dialysis buffer was added to the receiving end corresponding to the dialysis hole. Then the dialysis plate was sealed with gas-permeable membrane and placed in a humidified 5% CO2 incubator, and incubated at 37° C. with 100 rpm shaking for 4 hours. After the dialysis, 50 μL of the dialysis buffer sample and the dialysis plasma sample was transferred to a new sample receiving plate. […] All samples were analyzed by LC/MS/MS after protein precipitation, and the plasma protein unbound rate, binding rate and recovery rate was calculated according to the following formula: % unbound rate=100*free compound concentration at the membrane buffer side/total compound concentration at the membrane plasma side, % protein binding rate=100-% unbound rate, % recovery rate=100*(free compound concentration at the membrane buffer side+total compound concentration at the membrane plasma side)/total compound concentration before dialysis.

[2] = molecular target: T1, CYP2C19 (Homo sapiens, UniProt P33261); assay: Cytochrome P450 isozyme inhibitory activity test, CYP2C19; type: in vitro ADME; settings: heading: Cytochrome P450 isozyme IC50, CYP2C19; human liver microsome
T1 construct: from tissue; host or cells: human liver microsomes
Procedure: Determination of the inhibitory activity of the test compound on different human cytochrome P450 isozymes.
The test compound, standard inhibitor (100×final concentration), and a mixed substrate working solution were prepared; the microsome frozen in −80° C. refrigerator was thawed. 2 μL of the test compound and standard inhibitor solution was added to the corresponding wells, and at the same time 2 μL of the corresponding solvent was added to the non-inhibitor control wells (NIC) and blank control wells (Blank) wells; then 20 μL of mixed substrate solution was added to the corresponding wells, except for the Blank wells (20 μL of PB was added to the Blank wells); a human liver microsome solution was prepared (put back into the refrigerator immediately after using and marking the date), and then 158 μL of the human liver microsome solution was added to all wells; the above sample plate was placed in a 37° C. water bath for pre-incubation, then the coenzyme factor (NADPH) solution was prepared; 10 minutes later, 20 μL of the NADPH solution was added to all wells, and the sample plate was shaken well, placed in a 37° C. water bath and incubated for 10 minutes; at the corresponding time point, 400 μL of cold acetonitrile solution (internal standard: 200 ng/mL tolbutamide and labetalol) was added to terminate the reaction; the sample plate was evenly mixed, centrifuged at 4000 rpm for 20 minutes to precipitate proteins; 200 μL of the supernatant was added to 100 μL of water, shook well, and tested by LC/MS/MS.

[3] = In vivo pharmacokinetics in beagle dogs after single administration
Procedure: Male beagle dogs were used as test animals, the concentration of the compound in blood after single administration was determined to evaluate the pharmacokinetic behavior.
Beagle dogs (Male, 6-12 kg, more than 6 months, Beijing Marshall Biotechnology Co., Ltd.).
The objective of the test was to study the pharmacokinetic characteristics of the test compound in non-rodent after intravenous injection and oral administration. In the experiment, the test compound was prepared into a clear solution or homogeneous suspension and administered to the beagle dogs by single intravenous injection or oral administration. In the intravenous injection group, the menstruum was a certain proportion of dimethyl sulfoxide in HP-β-cyclodextrin solution or a certain proportion of ethanol, polyethylene glycol 400 and physiological saline solution, the mixture was vortexed and subjected to ultrasonic treatment to prepare 2 mg/mL or […] clear solution, then filtered with microporous membrane for later use; in the oral administration group, the menstruum was a certain proportion of dimethyl sulfoxide in HP-β-cyclodextrin solution or a certain proportion of sodium carboxymethyl cellulose solution, the test compound was mixed with the menstruum, vortexed and subjected to ultrasonic treatment to prepare 2 mg/mL clear solution or 1 mg/mL homogeneous suspension for later use. After 2 mg/kg or 1 mg/kg intravenous administration or 10 mg/kg or 5 mg/kg oral administration to the Beagle dogs, a certain amount of whole blood samples were collected, centrifuged at 3000 g for 10 minutes, and the supernatant was separated to obtain plasma samples; then an acetonitrile solution containing internal standard with a volume 10 times that of the plasma sample was added to precipitate proteins, and then centrifuged; the supernatant was separated for analysis; LC-MS/MS analysis method was used to quantitatively analyze the blood drug concentration, and Phoenix WinNonlin software (Pharsight, USA) was used to calculate the pharmacokinetic parameters, such as peak concentration, time to peak concentration, clearance rate, half-life, area under the concentration-time curve, bioavailability, etc.
Among them, C0 is the initial concentration, T1/2 is the elimination half-life, Vdss is the steady-state apparent volume of distribution, Cl is the total clearance rate, AUC0-inf is the area under the plasma drug concentration-time curve from time 0 to infinity, Cmax is the peak concentration, Tmax is the time to peak concentration.

[4] = male, beagle, dog, plasma, 10 mg/kg, dogs, 10 mpk oral administration

T1 sequence (P33261 whole entry): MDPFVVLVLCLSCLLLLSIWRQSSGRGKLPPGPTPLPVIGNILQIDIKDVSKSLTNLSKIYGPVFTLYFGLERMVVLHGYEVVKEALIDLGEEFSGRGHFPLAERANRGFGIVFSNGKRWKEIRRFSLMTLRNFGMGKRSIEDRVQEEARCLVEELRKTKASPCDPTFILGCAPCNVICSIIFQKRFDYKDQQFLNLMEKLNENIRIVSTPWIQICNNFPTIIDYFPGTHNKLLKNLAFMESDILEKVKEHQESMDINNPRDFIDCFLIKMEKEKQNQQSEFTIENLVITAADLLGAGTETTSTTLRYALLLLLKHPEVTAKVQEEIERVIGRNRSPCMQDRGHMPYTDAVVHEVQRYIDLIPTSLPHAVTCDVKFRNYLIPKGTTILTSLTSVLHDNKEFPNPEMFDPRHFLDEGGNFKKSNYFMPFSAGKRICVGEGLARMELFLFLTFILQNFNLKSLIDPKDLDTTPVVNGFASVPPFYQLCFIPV

In the case of `COCCN1C[C@@H](n2ccc(F)c2)[C@H](NC(=O)Nc2c(C)c(-c3cnc(C4(F)COC4)nc3)nn2-c2ccccc2)C1` [Compound 7], the “Plasma protein unbound rate, SD Rat plasma” value [1] is reported as 7.1%, the IC50 [2] is reported as greater than 50 µM and the “pharmacokinetic properties and oral bioavailability (in words)” value ([3]; in beagle dogs) is reported as “good pharmacokinetic properties and oral bioavailability”. It also gave an AUC(0-inf) [3, 4] of 7.69 µM·h, a Cmax [3, 4] of 3.95 µM and a Tmax [3, 4] of 0.63 h. The bioavailability [3, 4] was 33% and the half-life [3, 4] was 2.2 h.
